According to US20100310591A1 (priority 2009, published 2010):
Several values for one entry are separate records, joined by “and”; a condition that tells them apart may be missing. Equal values may be shown once. Read-outs that look alike come from different tables or passages of the source. Non-standard residues stand in square brackets, D forms with d. Ava = NCCCCC(=O)O

Columns and labels:
[1] = system: TPc9.1 T hybridoma with CH27 antigen presenting cells; test: T hybridoma response assay (APC + T hybridoma, HT-2 [3H]TdR uptake readout); assay type: cell-based, murine; settings: for EC50: serial 1:4 dilutions from 3 μM, 24 hr stimulation
Procedure: Biological Activities of Hybrid Peptides [00103) The biological activities of the series of peptides listed in Table I were determined with the T hybridoma response assay. A T cell hybridoma which is specific to the hornworm moth cytochrome C epitope IAYLKQATAK (SEQ ID NO: 8) was stimulated with that antigenic peptide or with members of the series of hybrids of the antigenic peptide and the core Ii-Key sequence listed in Table I. The hybrids were joined with spacers of various lengths. The spacers contained either amino acids in the natural sequence of the Ii protein, or methylene (—CH2—) groups of 5-amino-n-valeric acid (ava; 5-aminopentanoic acid). Cultures of an antigen presenting cell and T cell hybridoma were incubated with serial 1:4 dilutions of the antigenic peptide, from 3 μM. Response was determined by measuring tritiated thymidine uptake by an HT-2 culture to which supernatants of the antigenic stimulation culture (24 hr stimulation period) had been transferred (see, Table 2). The endpoint for half maximal response to Hybrid 1, the antigenic peptide, was about 20 nM. The endpoint for half maximal stimulation with Hybrids 5 and 2 was about 50 pM.
For this assay the following components were added at the same time of the primary culture: (a) The hybrid peptide containing the antigenic epitope (Table I); (b) mitomycin C-treated, MHC class II-positive antigen presenting cells (APC) with the MHC class II allele required for binding of the specific antigenic peptide and its presentation to the antigenic peptide-specific T cell hybridoma; (c) MHC class II allele-restricted T cell hybridoma specific for the antigenic peptide and the MHC class II allele restricting its presentation. At the end of the incubation of this primary culture, an aliquot of its supernatant was transferred into a second culture well for incubation with an interleukin-dependent lymphoblastoid cell line. The degree of stimulation of that second indicator cell by the interleukins which had been released from the activated T cell hybridoma in the primary culture was measured by quantitating tritiated thymidine deoxyribose {[^3H]TdR} uptake into the DNA of the HT-2 indicator cells of that second culture.
The hybrids between Ii-Key core sequence LRMK (SEQ ID NO: 3) and PGCC95-104, pigeon cytochrome C 95-104, IAYLKQATAK (SEQ ID NO: 8) are presented by E^k. The peptides were dissolved in phosphate-buffered saline (PBS; 0.01 M sodium phosphate buffer, pH 7.2, 0.1 M NaCl). The solutions were sterilized by filtration. The TPc9.1 T hybridoma is specific for pigeon cytochrome C 81-104 peptide presented on the murine class II MHC allele E^k. The CH27 B cell lymphoma line which expresses H-2^k alleles was used as the antigen presenting cell.
Antigenic peptide-specific T cell activation was measured by the following procedure. Mitomycin C-treated CH27 cells (A^kE^k) APC were generated by incubating 5.×10^6 cells/mL for 20 min at 37° C. with 0.025 mg/mL of mitomycin C (Sigma) in Dulbecco's Modified Eagle's Medium (DMEM)/10 mM N-2 (hydroxyethylpiperazine-N′[2-ethanesulfonic acid] (HEPES), followed by two washes with four volumes of DMEM-5% fetal calf serum (FCS), 10 mM HEPES. T cell hybridomas were irradiated 2200 rads before each assay.
For the primary culture assay, 5×10^4 mitomycin C-treated APC, 5×10^4 T hybridoma cells and serial 1:4 dilutions from 3 uM of the peptides containing antigenic epitopes were cultured at pH 7.2-7.4, in complete DMEM-5% FCS, 10 mM HEPES, 1× nonessential amino acids (Sigma), 1 mM sodium pyruvate, 2 mM L-glutamine. 100 U/mL penicillin G, 100 μg/mL streptomycin sulfate, 5×10^−5 M 2-mercaptoethanol (2-ME). Wells containing only T hybridoma cells (T)+APC were included to monitor for background T cell activation; and wells containing T+APC+antigenic peptide were included to monitor for non-specific T hybridoma activation by each AE101 series peptide. […]

[2] = system: CD4+ T cells (CD8+ depleted PBMC of rHA-responsive donors); assay type: cell-based, human
[3] = read-out: endpoint for half maximal stimulation

Ac-LRMK (SEQ ID NO: 3)-5-aminopentanoyl-5-aminopentanoyl-IAYLKQATAK (SEQ ID NO: 8)-NH2 (Ac-LRMK[Ava][Ava]IAYLKQATAK-NH2; SMILES CC[C@H](C)[C@H](NC(=O)CCCCNC(=O)CCCCNC(=O)[C@H](CCCCN)NC(=O)[C@H](CCSC)NC(=O)[C@H](CCCNC(=N)N)NC(=O)[C@H](CC(C)C)NC(C)=O)C(=O)N[C@@H](C)C(=O)N[C@@H](Cc1ccc(O)cc1)C(=O)N[C@@H](CC(C)C)C(=O)N[C@@H](CCCCN)C(=O)N[C@@H](CCC(N)=O)C(=O)N[C@@H](C)C(=O)N[C@H](C(=O)N[C@@H](C)C(=O)N[C@@H](CCCCN)C(N)=O)[C@@H](C)O) [Hybrid 3]
activity of hybrid (in words) [1]: comparable to those with the natural sequence of Ii protein
immunological response to the antigenic epitope (T cell proliferative response) ([1]; Conc. 0.01 nM): 0.6 thousands of counts per minute
immunological response to the antigenic epitope (T cell proliferative response) ([1]; Conc. 0.05 nM): 5.3 thousands of counts per minute
immunological response to the antigenic epitope (T cell proliferative response) ([1]; Conc. 0.18 nM): 21.6 thousands of counts per minute
immunological response to the antigenic epitope (T cell proliferative response) ([1]; Conc. 0.73 nM): 22.3 thousands of counts per minute
immunological response to the antigenic epitope (T cell proliferative response) ([1]; Conc. 3 nM): 27.9 thousands of counts per minute
immunological response to the antigenic epitope (T cell proliferative response) ([1]; Conc. 12 nM): 29.5 thousands of counts per minute
immunological response to the antigenic epitope (T cell proliferative response) ([1]; Conc. 47 nM): 26.2 thousands of counts per minute
immunological response to the antigenic epitope (T cell proliferative response) ([1]; Conc. 188 nM): 26.2 thousands of counts per minute
immunological response to the antigenic epitope (T cell proliferative response) ([1]; Conc. 750 nM): 31.7 thousands of counts per minute
immunological response to the antigenic epitope (T cell proliferative response) ([1]; Conc. 3000 nM): 31.9 thousands of counts per minute

Ac-LRMK (SEQ ID NO: 3)-5-aminopentanoyl-IAYLKQATAK (SEQ ID NO: 8)-NH2 (Ac-LRMK[Ava]IAYLKQATAK-NH2; SMILES CC[C@H](C)[C@H](NC(=O)CCCCNC(=O)[C@H](CCCCN)NC(=O)[C@H](CCSC)NC(=O)[C@H](CCCNC(=N)N)NC(=O)[C@H](CC(C)C)NC(C)=O)C(=O)N[C@@H](C)C(=O)N[C@@H](Cc1ccc(O)cc1)C(=O)N[C@@H](CC(C)C)C(=O)N[C@@H](CCCCN)C(=O)N[C@@H](CCC(N)=O)C(=O)N[C@@H](C)C(=O)N[C@H](C(=O)N[C@@H](C)C(=O)N[C@@H](CCCCN)C(N)=O)[C@@H](C)O) [Hybrid 2]
activity of hybrid (in words) [1]: comparable to those with the natural sequence of Ii protein
immunological response to the antigenic epitope (T cell proliferative response) ([1]; Conc. 0.01 nM): 3.4 thousands of counts per minute
immunological response to the antigenic epitope (T cell proliferative response) ([1]; Conc. 0.05 nM): 19.8 thousands of counts per minute
immunological response to the antigenic epitope (T cell proliferative response) ([1]; Conc. 0.18 nM): 31.2 thousands of counts per minute
immunological response to the antigenic epitope (T cell proliferative response) ([1]; Conc. 0.73 nM): 38.8 thousands of counts per minute
immunological response to the antigenic epitope (T cell proliferative response) ([1]; Conc. 3 nM): 30.1 thousands of counts per minute
immunological response to the antigenic epitope (T cell proliferative response) ([1]; Conc. 12 nM): 21.9 thousands of counts per minute
immunological response to the antigenic epitope (T cell proliferative response) ([1]; Conc. 47 nM): 20.8 thousands of counts per minute
immunological response to the antigenic epitope (T cell proliferative response) ([1]; Conc. 188 nM): 27.2 thousands of counts per minute
immunological response to the antigenic epitope (T cell proliferative response) ([1]; Conc. 750 nM): 23.9 thousands of counts per minute
immunological response to the antigenic epitope (T cell proliferative response) ([1]; Conc. 3000 nM): 25.1 thousands of counts per minute
EC50 [1, 3]: ~50 pM

Ac-LRMKLPKSAKPVSKIAYLKQATAK-NH2 (SEQ ID NO: 11) [Hybrid 6]
activity of hybrid (in words) [1]: sub-optimal activity
immunological response to the antigenic epitope (T cell proliferative response) ([1]; Conc. 0.01 nM): 2.9 thousands of counts per minute
immunological response to the antigenic epitope (T cell proliferative response) ([1]; Conc. 0.05 nM): 2.4 thousands of counts per minute
immunological response to the antigenic epitope (T cell proliferative response) ([1]; Conc. 0.18 nM): 11.9 thousands of counts per minute
immunological response to the antigenic epitope (T cell proliferative response) ([1]; Conc. 0.73 nM): 28.7 thousands of counts per minute
immunological response to the antigenic epitope (T cell proliferative response) ([1]; Conc. 3 nM): 31.4 thousands of counts per minute
immunological response to the antigenic epitope (T cell proliferative response) ([1]; Conc. 12 nM): 39.2 thousands of counts per minute
immunological response to the antigenic epitope (T cell proliferative response) ([1]; Conc. 47 nM): 25.3 thousands of counts per minute
immunological response to the antigenic epitope (T cell proliferative response) ([1]; Conc. 188 nM): 26.9 thousands of counts per minute
immunological response to the antigenic epitope (T cell proliferative response) ([1]; Conc. 750 nM): 23.4 thousands of counts per minute
immunological response to the antigenic epitope (T cell proliferative response) ([1]; Conc. 3000 nM): 21.5 thousands of counts per minute

Ac-LRMKLPKSIAYLKQATAK-NH2 (SEQ ID NO: 9) [Hybrid 4]
immunological response to the antigenic epitope (T cell proliferative response) ([1]; Conc. 0.01 nM): 2.5 thousands of counts per minute
immunological response to the antigenic epitope (T cell proliferative response) ([1]; Conc. 0.05 nM): 5.8 thousands of counts per minute
immunological response to the antigenic epitope (T cell proliferative response) ([1]; Conc. 0.18 nM): 9.1 thousands of counts per minute
immunological response to the antigenic epitope (T cell proliferative response) ([1]; Conc. 0.73 nM): 19.2 thousands of counts per minute
immunological response to the antigenic epitope (T cell proliferative response) ([1]; Conc. 3 nM): 19.0 thousands of counts per minute
immunological response to the antigenic epitope (T cell proliferative response) ([1]; Conc. 12 nM): 23.1 thousands of counts per minute
immunological response to the antigenic epitope (T cell proliferative response) ([1]; Conc. 47 nM): 19.5 thousands of counts per minute
immunological response to the antigenic epitope (T cell proliferative response) ([1]; Conc. 188 nM): 20.8 thousands of counts per minute
immunological response to the antigenic epitope (T cell proliferative response) ([1]; Conc. 750 nM): 23.3 thousands of counts per minute
immunological response to the antigenic epitope (T cell proliferative response) ([1]; Conc. 3000 nM): 25.2 thousands of counts per minute

FFRNVVWLIKKNSTYPT [BEI 28]
in vitro CD4 response, fold above background [2]: 3.7 fold above background

IAYLKQATAK [Hybrid 1, Ac-IAYLKQATAK—NH2 (SEQ ID NO: 8), reference compound]
immunological response to the antigenic epitope (T cell proliferative response) ([1]; Conc. 0.01 nM): 0 thousands of counts per minute
immunological response to the antigenic epitope (T cell proliferative response) ([1]; Conc. 0.05 nM): 0 thousands of counts per minute
immunological response to the antigenic epitope (T cell proliferative response) ([1]; Conc. 0.18 nM): 0 thousands of counts per minute
immunological response to the antigenic epitope (T cell proliferative response) ([1]; Conc. 0.73 nM): 4 thousands of counts per minute
immunological response to the antigenic epitope (T cell proliferative response) ([1]; Conc. 3 nM): 0.4 thousands of counts per minute
immunological response to the antigenic epitope (T cell proliferative response) ([1]; Conc. 12 nM): 10.9 thousands of counts per minute
immunological response to the antigenic epitope (T cell proliferative response) ([1]; Conc. 47 nM): 29.5 thousands of counts per minute
immunological response to the antigenic epitope (T cell proliferative response) ([1]; Conc. 188 nM): 32.4 thousands of counts per minute
immunological response to the antigenic epitope (T cell proliferative response) ([1]; Conc. 750 nM): 27.8 thousands of counts per minute
immunological response to the antigenic epitope (T cell proliferative response) ([1]; Conc. 3000 nM): 25.2 thousands of counts per minute
EC50 ([1]; read-out: endpoint for half maximal response): ~20000 pM

IGECPKYVKSNRLVLAT [BEI 54]
in vitro CD4 response, fold above background [2]: 3.9 fold above background and 3.8 fold above background

KMEDGFLDVWTYNAELL [BEI 73]
in vitro CD4 response, fold above background [2]: 15 fold above background

KRGLFGAIAGFIEGGWQ [BEI 59]
recognition frequency among donors [2]: 21%

LRMKLPKSAKPIAYLKQATAK [Hybrid 5]
immunological response to the antigenic epitope (T cell proliferative response) ([1]; Conc. 0.01 nM): 14.3 thousands of counts per minute
immunological response to the antigenic epitope (T cell proliferative response) ([1]; Conc. 0.05 nM): 21.3 thousands of counts per minute
immunological response to the antigenic epitope (T cell proliferative response) ([1]; Conc. 0.18 nM): 36.7 thousands of counts per minute
immunological response to the antigenic epitope (T cell proliferative response) ([1]; Conc. 0.73 nM): 30.1 thousands of counts per minute
immunological response to the antigenic epitope (T cell proliferative response) ([1]; Conc. 3 nM): 31.4 thousands of counts per minute
immunological response to the antigenic epitope (T cell proliferative response) ([1]; Conc. 12 nM): 44.6 thousands of counts per minute
immunological response to the antigenic epitope (T cell proliferative response) ([1]; Conc. 47 nM): 26.2 thousands of counts per minute
immunological response to the antigenic epitope (T cell proliferative response) ([1]; Conc. 188 nM): 29.1 thousands of counts per minute
immunological response to the antigenic epitope (T cell proliferative response) ([1]; Conc. 750 nM): 27.5 thousands of counts per minute
immunological response to the antigenic epitope (T cell proliferative response) ([1]; Conc. 3000 nM): 27.3 thousands of counts per minute
EC50 [1, 3]: ~50 pM
